Source: ChEMBL document CHEMBL1201862, “PubChem BioAssay data set” (2004)
One block for each compound: values may come before it. The source made the active and inactive calls.

Tests used:
[1] = biological target: Cytochrome P450 3A4 (Homo sapiens, UniProt P08684); settings: Potency;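 note: confirmatory qHTS run detecting inhibitors and substrates of CYP3A4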
[2] = biological target: T1, Small ubiquitin-related modifier 1 (Homo sapiens, UniProt P63165); assay: inhibitors of SUMO1 partner interactions, dose response, biochemical, FRET (AID 624383); format: functional; settings: read-out: IC50_Mean
[3] = biological target: Eukaryotic translation initiation factor 4E (Mus musculus, UniProt P63073); assay: eIF4E–eIF4G protein interaction inhibitors, dose response, biochemical, TR-FRET (AID 855); format: functional;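 note: potency for disrupting eIF4E binding to eIF4GI seen as loss of FRET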
[4] = biological target: T1, Small ubiquitin-related modifier 1; assay: inhibitors of SUMO1 peptide binding, dose response, biochemical, fluorescence polarization, uHTS hits (AID 624382); format: functional; settings: read-out: IC50_Mean
[5] = biological target: NAD-dependent protein deacylase sirtuin-5, mitochondrial (Homo sapiens, UniProt Q9NXA8); assay: SIRT5 desuccinylase inhibitors, dose response, biochemical, fluorescence imaging, cherry-pick, set 5 (AID 720591);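 note: desuccinylation of succinyl peptide AMC substrate read as fluorescence after trypsin release; potency of inhibitors that lower fluorescence and may act on trypsin instead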
[6] = biological target: Luciferin 4-monooxygenase (Photinus pyralis, UniProt P08659); assay: firefly luciferase enzyme inhibitors, dose response, biochemical, luminescence (AID 1891)
[7] = tested on: BJ; assay: cells; format: functional, cell-based; settings: Homo sapiens
[8] = tested on: BJ; assay: cytotoxicity toward BJ-TERT-LT-ST fibroblasts, dose response, cell-based, RAS-independent, luminescence (AID 1935); format: functional; settings: Homo sapiens;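 note: BJ fibroblasts immortalized with TERT plus LT and ST oncogenes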
[9] = tested on: BJ; assay: cytotoxicity toward BJ-TERT fibroblasts, dose response, cell-based, RAS-independent, luminescence (AID 1933); format: functional; settings: Homo sapiens
[10] = cytotoxicity toward DRD oncogenic fibroblasts, dose response, cell-based, non-viral oncogenic, luminescence (AID 1934); format: functional; settings: Homo sapiens
[11] = Luminescence Cell-Based Dose Confirmation HTS to Identify Inhibitors of Platelet Dense Granule Release. [Related pubchem assays: 1663 (Primary HTS), 1678 (Summary of Project)]; format: functional
[12] = biological target: Peroxisome proliferator-activated receptor gamma/Nuclear receptor coactivator 1 (Homo sapiens, UniProt P37231); format: functional;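 note: agonist potency as compounds enhance coactivator SRC-1 recruitment to PPARgamma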
[13] = biological target: Peroxisome proliferator-activated receptor gamma/Nuclear receptor coactivator 3 (Homo sapiens, UniProt P37231); format: functional;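 note: agonist potency for raising coactivator recruitment to the receptor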
[14] = biological target: Peroxisome proliferator-activated receptor gamma/Nuclear receptor coactivator 2 (Homo sapiens, UniProt P37231); format: functional;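 note: agonist potency for raising coactivator recruitment to the receptor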
[15] = inhibitors of intracellular T. cruzi replication, confirmation, NIH3T3 host cells, beta-gal luminescence (AID 2044); format: functional, cell-based;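 note: intracellular parasites grown in NIH/3T3 mouse fibroblasts as host cells; luminescent beta-galactosidase reporter signal from transgenic T. cruzi replicating inside host cells; inhibitors lower the luminescence signal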
[16] = cytotoxicity toward NIH3T3 fibroblasts, dose response, counter-screen, cell-based, ATP luminescence, mouse fibroblasts (AID 2010); format: functional;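 note: cells exposed to compound for about 90 hours before reading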
[17] = biological target: Induced myeloid leukemia cell differentiation protein Mcl-1 (Homo sapiens, UniProt Q07820); format: functional
[18] = biological target: Cytochrome P450 2C9 (Homo sapiens, UniProt P11712)
[19] = biological target: T2, Bcl-2-like protein 10 (Homo sapiens, UniProt Q9HD36); assay: displacers of TR3 peptide from Bcl-B, primary screen, selectivity assay for Bfl-1 inhibitor project, biochemical, fluorescence polarization, FITC-TR3 peptide (AID 748);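 note: fluorescence polarization from a fluorescein-labelled TR3 peptide binding purified Bcl-B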
T2 sequence (Q9HD36 whole entry): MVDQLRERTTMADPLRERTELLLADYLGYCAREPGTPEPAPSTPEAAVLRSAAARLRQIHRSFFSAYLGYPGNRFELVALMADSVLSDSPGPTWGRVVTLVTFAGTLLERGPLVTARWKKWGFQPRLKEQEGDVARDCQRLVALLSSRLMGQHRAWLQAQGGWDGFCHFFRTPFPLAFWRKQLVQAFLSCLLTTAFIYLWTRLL

[20] = biological target: T3, fMet-Leu-Phe receptor (Homo sapiens, UniProt P21462); assay: FPR ligands, dose response (AID 519); format: functional
T3 sequence (P21462 whole entry): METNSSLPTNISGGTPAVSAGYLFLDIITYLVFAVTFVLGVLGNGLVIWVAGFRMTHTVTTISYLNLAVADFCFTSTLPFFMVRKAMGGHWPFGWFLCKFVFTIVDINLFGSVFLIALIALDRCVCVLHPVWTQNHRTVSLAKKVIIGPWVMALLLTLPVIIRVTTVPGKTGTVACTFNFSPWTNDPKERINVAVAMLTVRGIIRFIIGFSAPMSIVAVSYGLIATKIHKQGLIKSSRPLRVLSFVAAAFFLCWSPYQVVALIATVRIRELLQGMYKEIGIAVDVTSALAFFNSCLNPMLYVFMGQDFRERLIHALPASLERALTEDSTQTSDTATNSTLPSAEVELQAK

[21] = biological target: T4, Rac GTPase-activating protein 1 (Homo sapiens, UniProt Q9H0H5); assay: MgcRacGAP GTPase-activating activity inhibitors, confirmation, biochemical, ADP Hunter fluorescence, primary and confirmatory (AID 624330); format: functional
T4 sequence (Q9H0H5 whole entry): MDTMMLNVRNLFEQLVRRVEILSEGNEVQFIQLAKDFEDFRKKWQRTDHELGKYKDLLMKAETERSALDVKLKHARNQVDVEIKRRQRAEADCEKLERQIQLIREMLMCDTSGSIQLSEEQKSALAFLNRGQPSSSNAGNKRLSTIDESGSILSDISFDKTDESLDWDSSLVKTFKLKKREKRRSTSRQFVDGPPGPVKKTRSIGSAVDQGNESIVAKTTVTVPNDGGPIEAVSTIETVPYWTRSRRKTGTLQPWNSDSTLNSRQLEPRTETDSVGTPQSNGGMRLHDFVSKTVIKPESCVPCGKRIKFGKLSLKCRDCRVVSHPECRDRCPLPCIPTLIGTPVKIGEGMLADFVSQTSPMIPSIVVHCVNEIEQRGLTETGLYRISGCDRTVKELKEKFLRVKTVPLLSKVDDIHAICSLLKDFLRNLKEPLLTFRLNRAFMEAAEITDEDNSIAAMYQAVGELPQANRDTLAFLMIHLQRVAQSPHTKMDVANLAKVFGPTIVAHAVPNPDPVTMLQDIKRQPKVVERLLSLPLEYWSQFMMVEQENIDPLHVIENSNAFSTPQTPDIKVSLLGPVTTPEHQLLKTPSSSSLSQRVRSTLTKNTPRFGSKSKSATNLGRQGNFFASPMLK

[22] = biological target: T5, DNA repair protein RAD52 homolog (Homo sapiens, UniProt P43351); format: functional, biochemical
T5 sequence (P43351 whole entry): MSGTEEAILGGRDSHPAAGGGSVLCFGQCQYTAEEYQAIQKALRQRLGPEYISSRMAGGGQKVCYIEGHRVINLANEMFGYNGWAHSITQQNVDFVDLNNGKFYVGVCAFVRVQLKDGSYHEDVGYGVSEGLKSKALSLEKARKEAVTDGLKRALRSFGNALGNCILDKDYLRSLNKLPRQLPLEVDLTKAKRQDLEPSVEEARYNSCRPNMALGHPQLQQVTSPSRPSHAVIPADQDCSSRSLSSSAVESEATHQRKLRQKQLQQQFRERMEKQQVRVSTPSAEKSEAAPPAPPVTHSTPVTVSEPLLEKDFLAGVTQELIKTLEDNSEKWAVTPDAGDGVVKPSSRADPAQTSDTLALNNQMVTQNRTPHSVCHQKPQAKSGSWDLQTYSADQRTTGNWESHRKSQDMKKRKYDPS

[23] = biological target: T6, Carboxy-terminal domain RNA polymerase II polypeptide A small phosphatase 1 (Homo sapiens, UniProt Q9GZU7); assay: inhibitors of CTDSP1, concentration-response testing, biochemical assay, absorbance-based, actives from ultra-high-throughput screening (AID 540297); format: functional
T6 sequence (Q9GZU7 whole entry): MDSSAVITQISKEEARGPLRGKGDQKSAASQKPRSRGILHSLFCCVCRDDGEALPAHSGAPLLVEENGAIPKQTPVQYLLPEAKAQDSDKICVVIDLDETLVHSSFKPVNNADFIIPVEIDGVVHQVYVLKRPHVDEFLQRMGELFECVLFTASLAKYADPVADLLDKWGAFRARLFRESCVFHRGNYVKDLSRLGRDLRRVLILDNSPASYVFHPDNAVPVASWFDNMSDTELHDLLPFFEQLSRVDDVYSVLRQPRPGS

[24] = P. falciparum ATP4 D1247Y mutant growth inhibitors, dose response, NITD609-resistant line, SYBR Green, dry powder (AID 1159571); format: functional, cell-based;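 note: parasites synchronized at ring stage by sorbitol before testing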
[25] = P. falciparum Dd2 growth inhibitors, dose response, SYBR Green, dry powder samples (AID 1159566); format: functional, cell-based;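 note: potency for growth inhibition with lower SYBR green DNA signal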
[26] = P. falciparum Dd2 growth inhibitors, dose response, SYBR Green, cherry-picked samples (AID 1159567); format: functional, cell-based
[27] = P. falciparum 3D7-ScDHODH growth inhibitors, dose response, SYBR Green, dry powder samples (AID 1159570); format: functional, cell-based;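 note: parasite growth measured after 72 hours of compound exposure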
[28] = HepG2 cell cytotoxicity, dose response, cytotoxicity control, cherry-picked samples (AID 1159577); format: functional, cell-based

NAD-dependent protein deacylase sirtuin-5, mitochondrial, sequence (Q9NXA8 whole entry): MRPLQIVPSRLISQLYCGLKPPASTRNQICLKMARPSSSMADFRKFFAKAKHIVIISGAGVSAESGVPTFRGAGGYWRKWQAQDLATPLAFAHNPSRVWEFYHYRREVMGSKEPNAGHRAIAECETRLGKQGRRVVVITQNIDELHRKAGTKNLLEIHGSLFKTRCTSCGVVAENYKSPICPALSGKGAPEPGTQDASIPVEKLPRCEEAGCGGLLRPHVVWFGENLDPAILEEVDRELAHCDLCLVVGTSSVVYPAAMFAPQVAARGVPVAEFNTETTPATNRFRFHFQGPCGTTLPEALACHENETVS
Peroxisome proliferator-activated receptor gamma/Nuclear receptor coactivator 1, sequence (P37231 whole entry): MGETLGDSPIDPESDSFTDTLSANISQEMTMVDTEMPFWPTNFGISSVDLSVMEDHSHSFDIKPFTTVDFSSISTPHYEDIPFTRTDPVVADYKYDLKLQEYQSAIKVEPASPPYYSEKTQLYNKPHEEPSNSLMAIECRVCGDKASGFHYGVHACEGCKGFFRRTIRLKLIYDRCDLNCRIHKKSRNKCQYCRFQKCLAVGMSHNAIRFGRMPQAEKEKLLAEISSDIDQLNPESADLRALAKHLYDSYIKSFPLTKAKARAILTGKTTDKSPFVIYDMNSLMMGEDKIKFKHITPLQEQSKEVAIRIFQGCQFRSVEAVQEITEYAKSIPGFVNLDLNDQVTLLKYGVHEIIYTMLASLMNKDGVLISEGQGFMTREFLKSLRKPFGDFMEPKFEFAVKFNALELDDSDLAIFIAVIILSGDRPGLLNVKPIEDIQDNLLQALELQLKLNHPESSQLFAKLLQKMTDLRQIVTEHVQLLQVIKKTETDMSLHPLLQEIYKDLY
Peroxisome proliferator-activated receptor gamma/Nuclear receptor coactivator 1, sequence (Q15788 whole entry, further chain): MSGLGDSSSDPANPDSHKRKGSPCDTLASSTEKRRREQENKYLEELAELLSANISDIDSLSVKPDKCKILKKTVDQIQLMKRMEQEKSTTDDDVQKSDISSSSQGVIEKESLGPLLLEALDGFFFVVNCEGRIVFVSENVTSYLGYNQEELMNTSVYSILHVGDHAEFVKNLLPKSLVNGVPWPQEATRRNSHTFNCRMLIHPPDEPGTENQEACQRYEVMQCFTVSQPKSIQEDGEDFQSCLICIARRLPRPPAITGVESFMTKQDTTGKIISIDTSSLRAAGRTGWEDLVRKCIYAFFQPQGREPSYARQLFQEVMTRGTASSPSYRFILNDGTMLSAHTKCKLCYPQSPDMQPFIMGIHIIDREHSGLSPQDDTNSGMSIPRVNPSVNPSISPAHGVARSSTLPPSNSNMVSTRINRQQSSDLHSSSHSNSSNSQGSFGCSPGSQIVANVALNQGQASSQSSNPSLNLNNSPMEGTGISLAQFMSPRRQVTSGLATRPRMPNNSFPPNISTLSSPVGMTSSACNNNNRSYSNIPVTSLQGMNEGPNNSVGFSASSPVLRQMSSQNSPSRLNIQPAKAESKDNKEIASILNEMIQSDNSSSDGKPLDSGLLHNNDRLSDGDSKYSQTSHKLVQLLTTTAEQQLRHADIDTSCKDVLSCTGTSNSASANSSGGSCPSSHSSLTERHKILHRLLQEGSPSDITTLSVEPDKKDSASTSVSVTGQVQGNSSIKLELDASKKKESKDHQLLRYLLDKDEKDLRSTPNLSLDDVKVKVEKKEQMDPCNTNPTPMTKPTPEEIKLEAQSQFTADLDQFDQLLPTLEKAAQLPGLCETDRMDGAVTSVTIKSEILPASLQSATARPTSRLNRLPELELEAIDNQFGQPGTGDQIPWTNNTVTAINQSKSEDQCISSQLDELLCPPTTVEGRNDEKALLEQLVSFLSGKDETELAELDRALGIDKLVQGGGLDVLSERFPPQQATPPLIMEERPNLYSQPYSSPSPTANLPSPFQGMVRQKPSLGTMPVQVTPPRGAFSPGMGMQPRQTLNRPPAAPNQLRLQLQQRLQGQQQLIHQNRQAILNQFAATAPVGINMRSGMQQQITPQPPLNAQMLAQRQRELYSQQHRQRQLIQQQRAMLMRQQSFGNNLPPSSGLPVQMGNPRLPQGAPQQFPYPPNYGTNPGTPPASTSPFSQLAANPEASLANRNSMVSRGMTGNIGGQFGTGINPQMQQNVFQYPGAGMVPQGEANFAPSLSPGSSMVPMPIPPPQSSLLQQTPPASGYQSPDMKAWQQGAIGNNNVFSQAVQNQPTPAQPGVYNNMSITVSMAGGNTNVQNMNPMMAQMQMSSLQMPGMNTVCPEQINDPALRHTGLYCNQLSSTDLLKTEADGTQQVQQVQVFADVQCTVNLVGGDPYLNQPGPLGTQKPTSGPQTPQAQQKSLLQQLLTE
Peroxisome proliferator-activated receptor gamma/Nuclear receptor coactivator 3, sequence (P37231 whole entry): as the sequence (P37231 whole entry) above
Peroxisome proliferator-activated receptor gamma/Nuclear receptor coactivator 3, sequence (Q9Y6Q9 whole entry, further chain): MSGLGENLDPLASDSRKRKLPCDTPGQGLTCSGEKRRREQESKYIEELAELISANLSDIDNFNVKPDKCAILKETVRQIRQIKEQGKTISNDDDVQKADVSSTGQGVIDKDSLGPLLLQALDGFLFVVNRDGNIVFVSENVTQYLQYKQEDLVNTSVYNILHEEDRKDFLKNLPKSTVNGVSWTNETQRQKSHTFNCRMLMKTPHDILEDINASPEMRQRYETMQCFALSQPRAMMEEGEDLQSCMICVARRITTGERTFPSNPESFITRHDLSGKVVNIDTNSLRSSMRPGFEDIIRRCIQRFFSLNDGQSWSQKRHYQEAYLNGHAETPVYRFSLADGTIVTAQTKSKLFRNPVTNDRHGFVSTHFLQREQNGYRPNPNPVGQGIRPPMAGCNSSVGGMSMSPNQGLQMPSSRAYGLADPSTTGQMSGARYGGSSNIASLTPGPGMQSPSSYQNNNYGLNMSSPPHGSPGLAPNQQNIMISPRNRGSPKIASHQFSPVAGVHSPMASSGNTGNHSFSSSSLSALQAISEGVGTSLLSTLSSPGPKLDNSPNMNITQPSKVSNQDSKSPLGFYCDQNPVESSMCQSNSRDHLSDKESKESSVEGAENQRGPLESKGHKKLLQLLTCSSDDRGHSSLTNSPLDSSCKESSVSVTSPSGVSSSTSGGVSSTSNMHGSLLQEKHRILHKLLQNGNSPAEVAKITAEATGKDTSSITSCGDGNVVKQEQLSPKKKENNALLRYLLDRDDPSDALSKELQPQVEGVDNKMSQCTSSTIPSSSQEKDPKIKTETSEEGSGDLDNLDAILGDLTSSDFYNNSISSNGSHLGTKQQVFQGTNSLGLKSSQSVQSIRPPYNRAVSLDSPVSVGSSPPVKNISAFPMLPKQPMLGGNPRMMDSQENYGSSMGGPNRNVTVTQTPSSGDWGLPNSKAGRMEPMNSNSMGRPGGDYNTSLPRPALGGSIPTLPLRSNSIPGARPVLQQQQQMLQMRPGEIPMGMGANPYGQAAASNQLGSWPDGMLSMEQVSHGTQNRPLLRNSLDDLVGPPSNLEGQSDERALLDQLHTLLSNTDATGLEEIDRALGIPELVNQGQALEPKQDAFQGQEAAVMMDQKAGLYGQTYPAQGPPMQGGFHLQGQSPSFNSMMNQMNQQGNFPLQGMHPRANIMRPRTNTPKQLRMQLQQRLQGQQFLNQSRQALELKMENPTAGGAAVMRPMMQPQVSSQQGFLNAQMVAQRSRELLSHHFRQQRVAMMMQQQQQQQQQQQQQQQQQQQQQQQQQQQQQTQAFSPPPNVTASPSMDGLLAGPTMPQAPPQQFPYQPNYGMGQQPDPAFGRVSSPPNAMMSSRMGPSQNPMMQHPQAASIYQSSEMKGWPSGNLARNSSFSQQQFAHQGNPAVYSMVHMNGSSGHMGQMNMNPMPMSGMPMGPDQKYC
Cytochrome P450 3A4, sequence (P08684 whole entry): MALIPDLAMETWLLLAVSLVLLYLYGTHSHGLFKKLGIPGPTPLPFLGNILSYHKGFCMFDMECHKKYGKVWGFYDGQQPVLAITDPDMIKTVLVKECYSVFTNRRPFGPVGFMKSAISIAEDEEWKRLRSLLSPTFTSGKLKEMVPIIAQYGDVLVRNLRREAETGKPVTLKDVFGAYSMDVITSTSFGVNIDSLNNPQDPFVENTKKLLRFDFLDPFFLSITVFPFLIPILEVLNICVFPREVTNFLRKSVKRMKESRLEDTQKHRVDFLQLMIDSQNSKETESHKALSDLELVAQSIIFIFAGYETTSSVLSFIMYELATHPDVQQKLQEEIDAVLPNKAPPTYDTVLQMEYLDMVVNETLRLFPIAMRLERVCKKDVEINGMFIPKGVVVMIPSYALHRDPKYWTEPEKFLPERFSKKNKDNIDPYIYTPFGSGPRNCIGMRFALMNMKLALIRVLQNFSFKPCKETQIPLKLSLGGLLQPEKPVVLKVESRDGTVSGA
T1 sequence (P63165 whole entry): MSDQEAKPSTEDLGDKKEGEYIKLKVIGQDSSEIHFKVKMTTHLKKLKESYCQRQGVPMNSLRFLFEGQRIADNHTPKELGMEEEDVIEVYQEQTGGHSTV
Eukaryotic translation initiation factor 4E, sequence (P63073 whole entry): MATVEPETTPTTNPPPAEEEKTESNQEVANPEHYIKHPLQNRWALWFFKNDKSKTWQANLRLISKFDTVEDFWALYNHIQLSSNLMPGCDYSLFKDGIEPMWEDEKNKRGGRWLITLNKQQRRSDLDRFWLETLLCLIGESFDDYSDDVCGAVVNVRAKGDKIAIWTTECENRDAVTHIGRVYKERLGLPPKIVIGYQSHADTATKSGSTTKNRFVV

SMILES: N#CCC(=O)NC(=O)NCC1CC1
AC50 [1]: 0.0126 µM (inconclusive)

SMILES: COc1ccc(OC)c(-c2csc(NC(=O)Cn3[nH]c(=O)c4ccccc4c3=O)n2)c1
IC50 [2]: 100 µM (inactive) | IC50 [3]: 50 µM (inactive) | IC50 [4]: > 66.6 µM (inactive) | AC50 [5]: 28 µM (active)

SMILES: Cc1ncsc1C(=O)Nc1nc2c(s1)CCCC2
EC50 [6]: 3.81 µM (active) | EC50 [7]: 20 µM (active) | EC50 [8]: > 150 µM (not active) | EC50 [9]: 18 µM (active) | EC50 [10]: 20.9 µM (inconclusive) | EC50 [11]: 3.99 µM (active)

SMILES: c1nc[nH]n1
AC50 [1]: 31.6 µM (inconclusive)

SMILES: CN(C)CCCN(C(=O)c1ccc(N2C(=O)CCC2=O)cc1)c1nc2c(F)cccc2s1
EC50 [15]: 0.471 µM (active) | EC50 [12]: > 79.4 µM (not active) | EC50 [16]: > 30 µM (not active) | EC50 [13]: > 79.4 µM (not active) | EC50 [14]: > 79.4 µM (not active)

SMILES: COC(=O)C1=[N+]([O-])OC(C(=O)OC)C1c1c[nH]c2ccccc12 (stereo not given)
Ki [20]: > 66.7 µM (inactive)

SMILES: COC(=O)[C@@H]1C[C@H]2CC[C@H](O)C[C@H]2N1CC1CC1
AC50 [1]: 20 µM (inconclusive)

SMILES: CCN1CCN(c2ccc(N)c(C)c2)CC1
IC50 [21]: 48.3 µM (active) | AC50 [22]: 3.46 µM (active)

SMILES: COc1ccc(S(=O)(=O)N2CCOc3ccccc32)cc1
EC50 [7]: 55.9 µM (inconclusive) | EC50 [8]: 10.3 µM (inconclusive) | EC50 [9]: 14 µM (active) | EC50 [10]: 13.1 µM (inconclusive)

SMILES: CCN(C(=O)Cc1c(C(=O)O)[nH]c2ccccc12)c1cc(OC)ccc1OC
Ki [20]: 18.4 µM (inactive)

SMILES: CCN(CC)C(=O)CSc1nc2ncccc2[nH]1
EC50 [12]: > 79.4 µM (not active) | EC50 [13]: > 79.4 µM (not active) | EC50 [14]: > 79.4 µM (not active)

SMILES: O=C(Nc1ccc(Nc2ccccc2)cc1)c1ccc(Br)o1
Ki [20]: > 66.7 µM (inactive)

SMILES: C[C@H](CO)N1C[C@H](C)[C@H](CN(C)S(=O)(=O)c2ccc([N+](=O)[O-])cc2)OCc2ccccc2-c2c(n(C)c3ccccc23)C1=O
AC50 [24]: 0.308 µM (active) | AC50 [25]: 0.305 µM (active) | AC50 [26]: 1 µM (active) | AC50 [27]: 0.476 µM (active)

SMILES: CCc1csc(N2[C@H](C#N)[C@H](c3ccccc3-c3ccc(F)cc3)[C@H]2CO)n1
AC50 [24]: 5.46 µM (active) | AC50 [25]: 0.989 µM (active) | AC50 [26]: 2.65 µM (active) | AC50 [27]: 1.13 µM (active)

SMILES: COc1ccc2c3c([nH]c2c1)[C@@H](CO)N(C(=O)CN(C)C)CC31CN(CC2CCCC2)C1
AC50 [26]: 2.12 µM (active) | AC50 [28]: 13.8 µM (active)

SMILES: Nc1ccc(-c2ccc(N)cc2)cc1 [BENZIDINE]
IC50 [21]: 7.39 µM (active) | AC50 [1]: 25.1 µM (inconclusive)

Continued, values first:

EC50 [12]: > 79.4 µM (not active) | EC50 [13]: > 79.4 µM (not active) | EC50 [14]: > 79.4 µM (not active)
SMILES: CCc1ccc(N(C(=O)c2csnn2)C(C(=O)NC(C)(C)C)c2cccnc2)cc1 (stereo not given)

EC50 [12]: > 79.4 µM (not active) | EC50 [13]: > 79.4 µM (not active) | EC50 [14]: > 79.4 µM (not active)
SMILES: CCn1cc(S(=O)(=O)Nc2ccccc2C(F)(F)F)cn1

IC50 [17]: 4.84 µM (active)
SMILES: O=C(COC(=O)c1ccc2c(c1)C(=O)N(Cc1ccncc1)C2=O)Nc1ccccc1[N+](=O)[O-]

AC50 [18]: 4.47 µM (inconclusive) | IC50 [19]: 73.3 µM (inactive)
SMILES: Cc1ccc(-n2nc3ccc(NC(=O)c4ccc5c(c4)OCO5)cc3n2)cc1

AC50 [5]: > 30 µM (inactive)
SMILES: COc1ccc(S(=O)(=O)N2CCOCC2)cc1NC(=O)CSc1n[nH]c(C(C)C)n1

AC50 [5]: > 30 µM (inactive)
SMILES: CSc1ccccc1NC(=O)COC(=O)CCC(=O)c1ccc(F)cc1

IC50 [23]: 4.27 µM (active) | IC50 [17]: 3.75 µM (active)
SMILES: O=C(N/N=C/c1ccco1)c1cccc(N2Cc3ccccc3C2)c1
